“Also recorded” adds a separate entry of the source. No end group written: not given here.
Legend:
ΔF from BRSV = test: Immunization of mice with BRSV ΔF protein co-formulated with CpG ODN 1826, indolicidin and/or polyphosphazene; format: in vivo, C57BL/6 and Balb/c mice; conditions: overall conclusion
Description: Six- to eight-week-old female C57BL/6 mice (Charles River, Montreal, Quebec) were immunized twice subcutaneously at 3 week intervals with 100 μL of vaccine containing 0.5 μg ΔF from BRSV (a truncated form of the BRSV F protein engineered to lack the transmembrane domain (aa1-522 only), either alone, or co-formulated with CpG oligonucleotide 1826 (CpG ODN), indolicidin (indol), and/or polyphosphazene (PP). CpG ODN, indolicidin and polyphosphazene were given at doses of 10 μg, 20 μg, and 50 μg, respectively. Negative control animals were immunized with buffer (placebo). CpG ODN 1826 ([…]) (SEQ ID NO:8) was provided by Merial (Lyon, France), and contained a phosphorothioate-modified backbone. […]
Statistical analysis was carried out using GraphPad Prism version 5.00 for Windows (GraphPad Software, San Diego, Calif.). Differences between groups were determined using a Mann-Whitney U test.
CpG ODN 1826, indolicidin, and polyphosphazene were examined for their ability to enhance antigen-specific immune responses when administered with the ΔF protein, either alone, or co-formulated with CpG, indolicidin, and/or PP. […] Mice were immunized twice subcutaneously, and serum total anti-ΔF IgG titers were measured after each immunization by ELISA. […]

human PBMC [1] = test: Chemokine induction by host defense peptides in human PBMC (ELISA); format: cell-based
Description: (§1) These peptides were tested for induction of chemokines and cytokines in human PBMCs. Human PBMCs stimulated with 20 and 100 μg/ml of host defense peptides were assessed for various cytokines and chemokines at the 24 hour time-point by ELISA (eBiosciences). […] Subsequently, selected host defense peptides were examined for protective activity in vivo. Briefly, BALB/c mice were administered peptides (8 mg/kg) by i.p. administration 4 h prior to infection. Mice were infected with 8.4×10^7 S. aureus in 5% mucin by i.p. administration. Bacterial counts in the peritoneal lavage were determined in 24 h after the initiation of infection.

[2] = test system: human cord blood mononuclear cells; test: Peptide activity in human cord blood mononuclear cells; format: cell-based
Description: as §1

S. aureus = test: Protection against S. aureus infection in mice; format: in vivo, BALB/c mice; conditions: 8 mg/kg i.p. 4 h prior to infection; bacterial counts in peritoneal lavage at 24 h
Description: as §1

human PBMC [3] = test: MCP-1 induction by triple adjuvant formulations (peptide, CpG 10103, PCPP) in human PBMC; format: cell-based; conditions: 24 hours, peptide 40 μg/ml, CpG 20 μg/ml, no PCPP, average of 4 biological replicates
Description: The effect of PCPP addition on chemokine induction by peptide-CpG 10103 complexes was assessed by the induction of MCP-1 in human PBMCs. Briefly, peptide-CpG complexes were formed as previously described and following incubation PCPP, with or without MgCl2 (pH 7.4), was added to the peptide-CpG complexes at various concentrations and incubated for 30 min at 37° C. Following incubation, human PBMCs were stimulated with the various formulations for 24 hours and levels of MCP-1 were measured by ELISA.

[4] = test system: human PBMCs and human red blood cells; test: Cytotoxicity: LDH release in human PBMCs and haemolysis of human red blood cells
[5] = Effect of indolicidin dose on adjuvant activity with CpG ODN 1826 (unpublished results); format: in vivo; conditions: 20 μg of peptide co-administered with CpG ODN 1826
From the text: Adjuvant doses were selected based on previous reports of adjuvanticity of the individual components.

[6] = Cytokine production by indolicidin with CpG ODN (unpublished results)
From the text: The combination of indolicidin, however, along with CpG ODN and polyphosphazene enhanced ΔF-specific humoral and cellular immune responses, and generated a Th1 response. […] The combination of all three adjuvants was required for optimal enhancement of the immune response, as well as to shift the resulting anti-ΔF immune response from Th2 to Th1. However the mechanisms of this immune enhancement are unclear. Without being bound by a particular theory, the enhanced immunogenicity and Th1-biasing effect of the combination with all three adjuvants with ΔF could be as a result of the stabilization and prolonged effect of CpG ODN and/or ΔF, and an increased uptake of CpG ODN and ΔF into antigen-presenting cells.

human PBMCs = test: MCP-1 induction by nucleic acid-peptide formulations in human PBMCs; format: cell-based; conditions: human PBMCs 24 hours; coupled with peptide 1002 or 1018; four biological replicates
Description: Chemokine induction by nucleic acid-peptide formulations Direct complex formation between the various nucleic acids and synthetic host defense peptides was verified prior to human PBMC stimulations. For determination of the immunostimulatory activities of various nucleic acids in complex with host defense peptides in vitro, the following experiment was conducted. Various combinations of CpG ODN 10103, non-CpG ODN 5′[…]3′ (SEQ ID NO:13), poly(I:C) and the synthetic host defense peptides 1002 and 1018 were examined for chemokine induction. Briefly, nucleic acids and peptide were co-incubated for 30 min at 37° C. prior to cell stimulations. Human PBMCs were stimulated with the various formulations for 24 hours and levels of MCP-1 were measured by ELISA. Optimal ratios 2:1, 1:1 and 1:2 nucleic acid:host defense peptide (μg/ml:μg/ml) were identified between concentration thresholds of 40 μg/ml and 10 μg/ml. The results were from four biological replicates.

[7] = human PBMC, peptide concentration 20 μg/ml
[8] = human PBMC, peptide concentration 20 μg/ml, 24 hour, ELISA
[9] = human PBMC, peptide concentration 100 μg/ml
[10] = human PBMC, peptide concentration 100 μg/ml, 24 hour, ELISA
[11] = Table 2, JK peptides, human PBMCs, peptide concentration 20 μg/ml
[12] = Table 2, JK peptides, human PBMCs, peptide concentration 100 μg/ml
[13] = Table 3, indolicidin derivatives, human PBMCs, peptide concentration 20 (unit not given)
[14] = Table 3, indolicidin derivatives, human PBMCs, peptide concentration 100 (unit not given)

In the case of CpG ODN 1826, the “type and enhancement of ΔF-specific immune response” value (ΔF from BRSV) is reported as “shift towards a Th1 or balanced immune response”.

In the case of “HH18: host defense peptide IWVIWRR (SEQ ID NO:21) (HH18)”, the “Chemokine Induction Gro-α” value (human PBMC [1]; [7]) is reported as 865 pg/mL, the “Chemokine Induction MCP-3” value (human PBMC [1]; [7]) is reported as 32 pg/mL and the “Chemokine Induction MCP-1” value (human PBMC [1]; [8]) is reported as 1111 pg/mL. The “Chemokine Induction Gro-α” value (human PBMC [1]; [9]) was 2964 pg/mL, the “Chemokine Induction MCP-3” value (human PBMC [1]; [9]) was 431 pg/mL and the “Chemokine Induction MCP-1” value (human PBMC [1]; [10]) was 9608 pg/mL. For the same substance, the “induction of chemokines and cytokines in human PBMCs (ranking in panel)” value (human PBMC [1]; panel of 20 HH-class peptides, 20 and 100 μg/ml, 24 hour) was “most active peptides” and the “activity in human cord blood mononuclear cells” value [2] was “further confirmed”.

For “JK1: peptide VFLRRIRVIVIR (SEQ ID NO:2) (JK1)”, the “Chemokine Induction Gro-α” value (human PBMC [1]; [11]) was 377 pg/mL, the “Chemokine Induction MCP-1” value (human PBMC [1]; [11]) was 663 pg/mL and the “Chemokine Induction Gro-α” value (human PBMC [1]; [12]) was 105 pg/mL. The “Chemokine Induction MCP-1” value (human PBMC [1]; [12]) was 1226 pg/mL.

With “JK3: peptide VQLRAIRVRVIR (SEQ ID NO:4) (JK3)” the “Chemokine Induction Gro-α” value (human PBMC [1]; [11]) was 430 pg/mL, the “Chemokine Induction MCP-1” value (human PBMC [1]; [11]) was 873 pg/mL and the “Chemokine Induction Gro-α” value (human PBMC [1]; [12]) was 320 pg/mL. The “Chemokine Induction MCP-1” value (human PBMC [1]; [12]) was 747 pg/mL.

For “JK4: peptide VQLRRIRVWVIR (SEQ ID NO:5) (JK4)”, the “Chemokine Induction Gro-α” value (human PBMC [1]; [11]) was 245 pg/mL, the “Chemokine Induction MCP-1” value (human PBMC [1]; [11]) was 655 pg/mL and the “Chemokine Induction Gro-α” value (human PBMC [1]; [12]) was 80 pg/mL. The “Chemokine Induction MCP-1” value (human PBMC [1]; [12]) was 557 pg/mL.

In the case of “JK5: peptide VQWRAIRVRVIR (SEQ ID NO:6) (JK5)”, the “Chemokine Induction Gro-α” value (human PBMC [1]; [11]) is reported as 317 pg/mL, the “Chemokine Induction MCP-1” value (human PBMC [1]; [11]) is reported as 673 pg/mL and the “Chemokine Induction Gro-α” value (human PBMC [1]; [12]) is reported as 123 pg/mL. For the same substance, the “Chemokine Induction MCP-1” value (human PBMC [1]; [12]) was 529 pg/mL.

In the case of “JK6: peptide VQWRRIRVWVIR (SEQ ID NO:7) (JK6)”, the “Chemokine Induction Gro-α” value (human PBMC [1]; [11]) is reported as 254 pg/mL, the “Chemokine Induction MCP-1” value (human PBMC [1]; [11]) is reported as 721 pg/mL and the “Chemokine Induction Gro-α” value (human PBMC [1]; [12]) is reported as 68 pg/mL. The “Chemokine Induction MCP-1” value (human PBMC [1]; [12]) was 671 pg/mL.

With Nisin Z [reference compound] the “Chemokine Induction Gro-α” value (human PBMC [1]; [7]) was 62 pg/mL, the “Chemokine Induction MCP-1” value (human PBMC [1]; [8]) was 434 pg/mL and the “Chemokine Induction Gro-α” value (human PBMC [1]; [9]) was 5811 pg/mL. For the same substance, the “Chemokine Induction MCP-1” value (human PBMC [1]; [10]) was 7329 pg/mL, the “protection in animal challenges against S. aureus” value (S. aureus) was “offered protection” and the “MCP-1 Induction” value (human PBMC [3]) was 47 pg/mL.

For VQRWLIVWRIRK [Peptide 1002], the “cytotoxicity (LDH release in human PBMCs, haemolysis of human red blood cells)” value [4] was “minimal cytotoxicity”.

For VRLIVAVRIWRR-NH2 [Peptide 1018], the “cytotoxicity (LDH release in human PBMCs, haemolysis of human red blood cells)” value [4] was “minimal cytotoxicity”.

With indolicidin [reference compound] the “Chemokine Induction Gro-α” value (human PBMC [1]; [13]) was 84 pg/mL, the “Chemokine Induction MCP-1” value (human PBMC [1]; [13]) was 245 pg/mL and the “Chemokine Induction Gro-α” value (human PBMC [1]; [14]) was 846 pg/mL. The “Chemokine Induction MCP-1” value (human PBMC [1]; [14]) was 3120 pg/mL, the “type and enhancement of ΔF-specific immune response” value (ΔF from BRSV) was “sustain the type-2 immune response; also recorded: did not appear to be an effective adjuvant” and the “adjuvant activity and class switching to IgG2a by dose” value [5] was “enhanced antigen-specific immune responses and effected class switching to IgG2a better than when the peptide was administered at a 10-fold higher dose”. For the same substance, the “production of Th1 cytokines IL-12 and IFN-γ and chemotactic factor MCP-1” value [6] was “acts synergistically with CpG ODN”.

For “polyriboinosinic acid-polyribocytidylic acid [poly(I:C)]”, the “induction of MCP-1 versus individual components” value (human PBMCs) was “synergistic induction of MCP-1”.

From patent US9408908B2, “Combination adjuvant formulation” (University of Saskatchewan, priority 2008, dated 2016)
